Values joined by “and” are separate entries in the source; they are usually repeats but may differ in a detail not shown here. Equal values may be shown once. Inconclusive results and toxic doses are left out. How the source made its calls: active means survival T/C of 150% or more; inactive means T/C below 125% in these data.
Test system: P388 leukemia ip, CD2F1 mice, survival T/C
Test: NCI In Vivo Anticancer Drug Screen. Data for tumor model P388 Leukemia (intraperitoneal) in CD2F1 (CDF1) mice
Conditions: endpoint: median survival time, higher = longer survival
Summary of the method: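 Mice carrying the transplanted tumor received test compound or vehicle. Survival was recorded in each group, and the value is the treated-group measurement divided by that of the vehicle-treated control group.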

[1] = dose: 60.0 mg/kg/injection, schedule: Q01DX005 (ip), vehicle: saline with Tween-80
[2] = dose: 120.0 mg/kg/injection, schedule: Q01DX005 (ip), vehicle: saline with Tween-80
[3] = dose: 240.0 mg/kg/injection, schedule: Q01DX005 (ip), vehicle: saline with Tween-80
[4] = dose: 50.0 mg/kg/injection, schedule: Q01DX005 (ip), vehicle: saline with Tween-80
[5] = dose: 100.0 mg/kg/injection, schedule: Q01DX005 (ip), vehicle: saline with Tween-80
[6] = dose: 200.0 mg/kg/injection, schedule: Q01DX005 (ip), vehicle: saline with Tween-80
[7] = dose: 50.0 mg/kg/injection, schedule: Q01DX005 (ip), vehicle: Klucel (hydroxypropylcellulose) (HPC)
[8] = dose: 100.0 mg/kg/injection, schedule: Q01DX005 (ip), vehicle: Klucel (hydroxypropylcellulose) (HPC)
[9] = dose: 200.0 mg/kg/injection, schedule: Q01DX005 (ip), vehicle: Klucel (hydroxypropylcellulose) (HPC)
[10] = dose: 25.0 mg/kg/injection, schedule: Q01DX009 (ip), vehicle: saline with Tween-80
[11] = dose: 50.0 mg/kg/injection, schedule: Q01DX009 (ip), vehicle: saline with Tween-80
[12] = dose: 25.0 mg/kg/injection, schedule: Q01DX005 (ip), vehicle: saline with Tween-80

Measured: T/C

COc1cc(/C=C/C(=O)NCCCCN=[N+]=[N-])ccc1OCc1ccccc1
inactive: [1] 93 % of control | [2] 96 % of control | [3] 97 % of control

O=S(=O)(Nc1nccs1)c1ccc(Nc2c3ccc(Cl)cc3nc3ncccc23)cc1
inactive: [4] 105 % of control | [5] 102 % of control | [6] 98 % of control

COC(=O)C1=NC(=S)N=C(C(=O)OC)C1(C)C(=O)c1ccccc1
inactive: dose: 60.0 mg/kg/injection, schedule: Q01DX005 (ip), vehicle: saline 95 % of control | dose: 120.0 mg/kg/injection, schedule: Q01DX005 (ip), vehicle: saline 95 % of control | dose: 240.0 mg/kg/injection, schedule: Q01DX005 (ip), vehicle: saline 118 % of control

S=c1ncn(C2CCCC2)c(=S)[nH]1
inactive: [7] 93 % of control | [8] 103 % of control | [9] 100 % of control

Cn1ccc2cc(C3CCCc4c3[nH]c3ccccc43)c(OCc3ccccc3)cc21 (stereo not given)
inactive: dose: 6.25 mg/kg/injection, schedule: Q01DX005 (ip), vehicle: Klucel (hydroxypropylcellulose) (HPC) 99 % of control | dose: 12.5 mg/kg/injection, schedule: Q01DX005 (ip), vehicle: Klucel (hydroxypropylcellulose) (HPC) 97 % of control | dose: 25.0 mg/kg/injection, schedule: Q01DX005 (ip), vehicle: Klucel (hydroxypropylcellulose) (HPC) 97 % of control

c1cnc2c(c1)Oc1nc3ccccc3nc1S2
inactive: [4] 99 % of control | [5] 98 % of control | [6] 96 % of control

Nc1nc(=S)c2ncn(C3OC(COC(=O)c4ccc(Cl)cc4)C(OC(=O)c4ccc(Cl)cc4)C3OC(=O)c3ccc(Cl)cc3)c2[nH]1 (stereo not given)
inactive: [10] 122 % of control | dose: 25.0 mg/kg/injection, schedule: Q04DX003 (ip), vehicle: saline with Tween-80 95 % of control | dose: 50.0 mg/kg/injection, schedule: Q04DX003 (ip), vehicle: saline with Tween-80 100 % of control | dose: 100.0 mg/kg/injection, schedule: Q04DX003 (ip), vehicle: saline with Tween-80 104 % of control | dose: 132.0 mg/kg/injection, schedule: Q04DX003 (ip), vehicle: saline with Tween-80 116 % of control | dose: 400.0 mg/kg/injection, schedule: Q04DX003 (ip), vehicle: saline with Tween-80 104 % of control

CN(C)CCOC(=O)C1CC2(C1)CC(C(=O)OCCN(C)C)C2 (stereo not given)
inactive: [7] 95 % of control | [8] 97 % of control | [9] 103 % of control

CCCC(C)C(=O)N(C(C)=O)c1ccc(Cl)c(Cl)c1 (stereo not given)
inactive: [11] 103 % of control | dose: 100.0 mg/kg/injection, schedule: Q01DX009 (ip), vehicle: saline with Tween-80 103 % of control | dose: 200.0 mg/kg/injection, schedule: Q01DX009 (ip), vehicle: saline with Tween-80 110 % of control

CCOc1c(N=Nc2cccc([N+](=O)[O-])c2)c(C)nn1C(N)=S
inactive: dose: 15.0 mg/kg/injection, schedule: Q01DX005 (ip), vehicle: Klucel + Tween-80 92 % of control | dose: 30.0 mg/kg/injection, schedule: Q01DX005 (ip), vehicle: Klucel + Tween-80 94 % of control

Cc1nc2ncn(-c3ccccc3)c2c(=O)n1-c1ccccc1
inactive: [7] 100 % of control | [8] 100 % of control | [9] 100 % of control

Nc1ccccc1SCc1csc(-c2ccc(Cl)cc2)n1
inactive: dose: 50.0 mg/kg/injection, schedule: Q01DX009 (ip), vehicle: saline 103 % of control | dose: 100.0 mg/kg/injection, schedule: Q01DX009 (ip), vehicle: saline 114 % of control | dose: 200.0 mg/kg/injection, schedule: Q01DX009 (ip), vehicle: saline 109 % of control

CC1(C)SC(C)(c2ccsc2)N(c2nccs2)C1=O (stereo not given)
inactive: dose: 60.0 mg/kg/injection, schedule: Q01DX005 (ip), vehicle: Klucel (hydroxypropylcellulose) (HPC) 97 % of control | dose: 120.0 mg/kg/injection, schedule: Q01DX005 (ip), vehicle: Klucel (hydroxypropylcellulose) (HPC) 96 % of control | dose: 240.0 mg/kg/injection, schedule: Q01DX005 (ip), vehicle: Klucel (hydroxypropylcellulose) (HPC) 94 % of control

COC(=O)[C@H]1[C@H]2CCOC1(c1cc(OC)c(OC)c(OC)c1)c1cc3c(cc1[C@H]2O)OCO3
inactive: dose: 4.5 mg/kg/injection, schedule: Q01DX009 (ip), vehicle: Klucel (hydroxypropylcellulose) (HPC) 102 % of control | dose: 9.0 mg/kg/injection, schedule: Q01DX009 (ip), vehicle: Klucel (hydroxypropylcellulose) (HPC) 104 % of control | dose: 18.0 mg/kg/injection, schedule: Q01DX009 (ip), vehicle: Klucel (hydroxypropylcellulose) (HPC) 96 % of control | dose: 36.0 mg/kg/injection, schedule: Q01DX009 (ip), vehicle: Klucel (hydroxypropylcellulose) (HPC) 100 % of control

CNC(=O)OCc1c(C)oc(-c2ccccc2)c1COC(=O)NC
inactive: dose: 12.5 mg/kg/injection, schedule: Q01DX009 (ip), vehicle: distilled water + Tween-80 93 % of control | dose: 25.0 mg/kg/injection, schedule: Q01DX009 (ip), vehicle: distilled water + Tween-80 90 % of control | dose: 50.0 mg/kg/injection, schedule: Q01DX009 (ip), vehicle: distilled water + Tween-80 100 % of control

[N-]=[N+]=CC(=O)C1OC12C1CC3CC(C1)CC2C3 (stereo not given)
inactive: [12] 86 % of control | [4] 105 % of control | [5] 113 % of control | [6] 113 % of control

O=S1(=O)N=C(Sc2nc3ccccc3s2)c2ccccc21
inactive: [4] 102 % of control | [5] 107 % of control | [6] 117 % of control

CCCc1c(-n2[nH]c(=O)n(-c3ccccc3)c2=O)c(=O)n(C)c(=O)n1C
inactive: dose: 50.0 mg/kg/injection, schedule: Q01DX009 (ip), vehicle: Klucel (hydroxypropylcellulose) (HPC) 110 % of control | dose: 100.0 mg/kg/injection, schedule: Q01DX009 (ip), vehicle: Klucel (hydroxypropylcellulose) (HPC) 105 % of control | dose: 200.0 mg/kg/injection, schedule: Q01DX009 (ip), vehicle: Klucel (hydroxypropylcellulose) (HPC) 95 % of control

O=c1c(=NO)c(=O)c2ccccc12
inactive: dose: 100.0 mg/kg/injection, schedule: Q01DX001 (ip), vehicle: saline with Tween-80 103 % of control | dose: 200.0 mg/kg/injection, schedule: Q01DX001 (ip), vehicle: saline with Tween-80 110 % of control

COCCOC(=O)Nc1c(Cl)cccc1Cl
inactive: [1] 98 % of control | [2] 100 % of control | [3] 100 % of control

CC[C@@H]1CN2CCc3c([nH]c4ccccc34)[C@@H]2C[C@@H]1/C(=C\OC)C(=O)OC
inactive: dose: 25.0 mg/kg/injection, schedule: Q01DX005 (ip), vehicle: saline 100 % of control and 96 % of control | dose: 50.0 mg/kg/injection, schedule: Q01DX005 (ip), vehicle: saline 98 % of control and 107 % of control and 108 % of control | dose: 100.0 mg/kg/injection, schedule: Q01DX005 (ip), vehicle: saline 109 % of control (2×) and 123 % of control

NNC(=O)CCSC(=O)Nc1ccccc1
inactive: dose: 12.5 mg/kg/injection, schedule: Q01DX005 (ip), vehicle: saline with Tween-80 110 % of control | [12] 106 % of control | [4] 107 % of control and 112 % of control | [5] 114 % of control

COc1ccc2c(Cl)ccnc2c1OC
inactive: [4] 99 % of control | [5] 107 % of control

CCCCCCCCCCCCCCCCS.[Ge]
inactive: dose: 12.5 mg/kg/injection, schedule: Q01DX009 (ip), vehicle: saline with Tween-80 106 % of control | [10] 98 % of control | [11] 104 % of control

Cc1cc(C(C)(CC(C)C)c2ccc(O)c(C)c2)ccc1O
inactive: [10] 116 % of control | [11] 98 % of control

COc1ccc(/C=C/c2nc(Nc3ccc(OC)cc3)c3ccccc3n2)cc1
inactive: dose: 50.0 mg/kg/injection, schedule: Q01DX009 (ip), vehicle: acetone 98 % of control | dose: 100.0 mg/kg/injection, schedule: Q01DX009 (ip), vehicle: acetone 91 % of control | dose: 200.0 mg/kg/injection, schedule: Q01DX009 (ip), vehicle: acetone 99 % of control

From PubChem BioAssay AID330 (DTP/NCI, 2004)
